Experimental data reported in patent US6716582B2 (priority 2000, dated 2004).

How the values were obtained:
luxCDABE gene fusions = experiment: retest of nalidixic acid upregulated fusions in liquid medium; type: cell-based, E. coli; conditions: of 7 conc tested
Protocol: Several concentrations of nalidixic acid were used because the differences in responses between liquid and solid growth were not known. Light production of 100 μl duplicate cultures at 37° C. was quantitated using a 96 well plate luminometer (Luminoskan Ascent, Labsystems). […] It should be noted that the liquid medium tests were not corrected for growth inhibition by nalidixic acid.

[1] = system: Luxarray 0.5 luxCDABE reporter clones; experiment: Luxarray 0.5 solid phase perturbation with nalidixic acid; type: cell-based, E. coli; conditions: for bioluminescence response: solid phase, 1 or 5 μg/ml, 2 hrs
Protocol: A solid phase assay system consisting of reporter clones growing in the presence or absence of a perturbation, biological, environmental or chemical was developed. This was accomplished by growing the reporters on a porous membrane (Biodyne B, Nunc) seated on top of solid growth media in a culture dish (OmniTray, Nunc). Luminescence was measured either by a luminometer or by creating an image of the entire culture and quantitating the pixel density. Effects of perturbants can be determined by comparison of luminescence generated by treated and control cultures. Growth on the surface of the membrane allows the reporter assay to be moved between conditions as required. Experimental protocols often involve perturbations that prohibit long term exposure due to cell death or other irreversible effects. The ability to move the entire array to new growth conditions allows one a great variety of experimental schemes such as pulsed or pulse/chase exposures, reversibility, and short term kinetic studies.
Membranes were sterilized with UV illumination for 10 min then placed in contact with prewarmed media in a culture dish. The clones and controls were printed onto an approximately 8×12 cm membrane mimicking the pattern of a 96-well plate (FIG. 3A). Strains were printed to generate 8 repeating sections of the 10 strains and two controls and placed in a Dynex ML3000 luminometer prewarmed to 37° C. Luminescence data was collected for each spot for 40 cycles of 20 min duration (overnight). […] Without exception, the signal strength measured corroborated the data obtained in liquid culture. Additionally, replicates varied minimally, again similar to liquid culture measurements.
Next the system was evaluated for its ability to determine responses to perturbation, in this case, DNA damage caused by nalidixic acid. Parental clone and two nonresponding reporters, osmY, and lacZYA, and three DNA damage responsive reporters, uvrA, recA, dinG, were chosen. […] The membranes were moved to new, pre-warmed plates containing varying amounts of nalidixic acid and light readings collected with an ML3000 luminometer. […] Luminescence was measured with a Dynex ML3000 luminometer every 30 min for 2 hrs. […] The strain containing the parental plasmid, pDEW201, without a promoter driving luxCDABE expression produces very low levels of bioluminescence that are very close to the background measured on a ML3000 luminometer for strains grown in 96-well microplates. […]
The clones of Luxarray 0.5 were used to print arrays as described above at a 4×4 density. […] Spot intensity was determined using ArrayVision™ (Imaging Research, Toronto, Canada).

**Q.** Which “# of conc with > 1.5 fold up” value (luxCDABE gene fusions; dinG ybiB lux-a.pk0024.f5) does the source give for `CCn1cc(C(=O)O)c(=O)c2ccc(C)nc21` [Nalidixic acid, nalidixic acid] here?
**A.** The value was 6.

**Q.** What about the “# of conc with > 1.5 fold up” value (luxCDABE gene fusions; dinP lux-a.pk055.a3) of the same molecule?
**A.** Its value is 7.

**Q.** And the “# of conc with > 1.5 fold up” value (luxCDABE gene fusions; frvR frvX frvB frvA lux-a.pk046.e6)?
**A.** Its value is 0.

**Q.** What about the “# of conc with > 1.5 fold up” value (luxCDABE gene fusions; lpxA lpxB rnhB dnaE lux-a.pk061.c3) of the same molecule?
**A.** The value was 3.

**Q.** What about the “# of conc with > 1.5 fold up” value (luxCDABE gene fusions; lux-a.pk0015.d6) of the same molecule?
**A.** The value was 6.

**Q.** And the “# of conc with > 1.5 fold up” value (luxCDABE gene fusions; lux-a.pk0019.g1)?
**A.** The value was 6.

**Q.** What about the “# of conc with > 1.5 fold up” value (luxCDABE gene fusions; lux-a.pk033.c5) of the same molecule?
**A.** Its value is 7.

**Q.** And the “# of conc with > 1.5 fold up” value (luxCDABE gene fusions; oraA lux-a.pk058.f5)?
**A.** Its value is 7.

**Q.** What about the “# of conc with > 1.5 fold up” value (luxCDABE gene fusions; yaaF lux-a.pk031.e7) of the same molecule?
**A.** The value was 3.

**Q.** What about the “# of conc with > 1.5 fold up” value (luxCDABE gene fusions; yfhJ fdx hscA yfhE lux-a.pk0019.g2) of the same molecule?
**A.** The value was 0.

**Q.** And the “# of conc with > 1.5 fold up” value (luxCDABE gene fusions; yigN lux-a.pk046.f11)?
**A.** The value was 5.

**Q.** And the bioluminescence response ([1]; SOS regulon reporters uvrA, recA, dinG)?
**A.** The bioluminescence response was “increased bioluminescence”.

**Q.** And the reporter expression ([1]; five DNA damage-responsive reporters, high density array, 5 μg/ml, 0-8 hr)?
**A.** The reporter expression was “upregulation of expression”.

**Q.** And the light production ([1]; lac promoter fusion and several other promoter fusions, high density array, 5 μg/ml)?
**A.** Its light production is “decreased”.

**Q.** And the bioluminescence response ([1]; osmY and lacZYA fusions)?
**A.** The bioluminescence response was “unaffected”.
